Experimental findings from US9492471B2, “Methods of treating a disease or disorder associated with Bruton'S Tyrosine Kinase” (Celgene Avilomics Research, Inc., priority 2013, dated 2016) are described below.

Common to all, as to test: HotSpot kinase profiling
What all share (assay type): biochemical

The target in one experiment is T1, EPHB3 (Homo sapiens, UniProt P54753).
T1 construct: purchased Reaction Biology Corp
T1 sequence (P54753 34-998): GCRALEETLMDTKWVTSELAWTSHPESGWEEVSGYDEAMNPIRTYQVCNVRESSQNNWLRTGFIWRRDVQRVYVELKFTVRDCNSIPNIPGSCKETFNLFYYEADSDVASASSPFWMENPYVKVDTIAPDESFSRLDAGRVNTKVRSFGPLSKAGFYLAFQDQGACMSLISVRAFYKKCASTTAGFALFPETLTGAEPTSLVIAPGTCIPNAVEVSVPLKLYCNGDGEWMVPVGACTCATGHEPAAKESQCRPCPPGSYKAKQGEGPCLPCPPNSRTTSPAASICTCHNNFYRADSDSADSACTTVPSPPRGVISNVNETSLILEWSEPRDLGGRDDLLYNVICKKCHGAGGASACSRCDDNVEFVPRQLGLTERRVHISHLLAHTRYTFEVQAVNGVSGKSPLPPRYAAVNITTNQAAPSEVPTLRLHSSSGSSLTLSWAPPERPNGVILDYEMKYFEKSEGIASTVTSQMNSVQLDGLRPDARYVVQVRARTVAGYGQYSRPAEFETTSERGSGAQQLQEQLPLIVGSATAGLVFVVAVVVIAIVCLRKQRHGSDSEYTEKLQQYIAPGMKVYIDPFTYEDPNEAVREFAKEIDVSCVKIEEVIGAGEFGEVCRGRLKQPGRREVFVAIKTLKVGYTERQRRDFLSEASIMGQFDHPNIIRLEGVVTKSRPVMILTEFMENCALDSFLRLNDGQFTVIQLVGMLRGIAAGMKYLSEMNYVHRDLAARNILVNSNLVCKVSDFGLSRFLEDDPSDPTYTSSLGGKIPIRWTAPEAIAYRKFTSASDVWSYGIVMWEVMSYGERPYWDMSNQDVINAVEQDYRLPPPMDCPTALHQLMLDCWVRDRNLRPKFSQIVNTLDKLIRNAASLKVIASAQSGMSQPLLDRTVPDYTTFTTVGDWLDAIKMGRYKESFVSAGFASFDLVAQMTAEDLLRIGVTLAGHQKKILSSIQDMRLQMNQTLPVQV
In outline:
(§1)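 Radiometric kinase assay with P81 filter capture; each kinase was added to fresh substrate plus cofactors in reaction buffer and incubated 2 h at room temperature. Unreacted phosphate was washed off with 0.1% phosphoric acid before detection; percent inhibition is relative to DMSO control, averaged over replicates.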

Another experiment deals with T2, RIPK5 (Homo sapiens, UniProt Q6XUX3).
T2 construct: purchased Reaction Biology Corp
T2 sequence (Q6XUX3 1-929): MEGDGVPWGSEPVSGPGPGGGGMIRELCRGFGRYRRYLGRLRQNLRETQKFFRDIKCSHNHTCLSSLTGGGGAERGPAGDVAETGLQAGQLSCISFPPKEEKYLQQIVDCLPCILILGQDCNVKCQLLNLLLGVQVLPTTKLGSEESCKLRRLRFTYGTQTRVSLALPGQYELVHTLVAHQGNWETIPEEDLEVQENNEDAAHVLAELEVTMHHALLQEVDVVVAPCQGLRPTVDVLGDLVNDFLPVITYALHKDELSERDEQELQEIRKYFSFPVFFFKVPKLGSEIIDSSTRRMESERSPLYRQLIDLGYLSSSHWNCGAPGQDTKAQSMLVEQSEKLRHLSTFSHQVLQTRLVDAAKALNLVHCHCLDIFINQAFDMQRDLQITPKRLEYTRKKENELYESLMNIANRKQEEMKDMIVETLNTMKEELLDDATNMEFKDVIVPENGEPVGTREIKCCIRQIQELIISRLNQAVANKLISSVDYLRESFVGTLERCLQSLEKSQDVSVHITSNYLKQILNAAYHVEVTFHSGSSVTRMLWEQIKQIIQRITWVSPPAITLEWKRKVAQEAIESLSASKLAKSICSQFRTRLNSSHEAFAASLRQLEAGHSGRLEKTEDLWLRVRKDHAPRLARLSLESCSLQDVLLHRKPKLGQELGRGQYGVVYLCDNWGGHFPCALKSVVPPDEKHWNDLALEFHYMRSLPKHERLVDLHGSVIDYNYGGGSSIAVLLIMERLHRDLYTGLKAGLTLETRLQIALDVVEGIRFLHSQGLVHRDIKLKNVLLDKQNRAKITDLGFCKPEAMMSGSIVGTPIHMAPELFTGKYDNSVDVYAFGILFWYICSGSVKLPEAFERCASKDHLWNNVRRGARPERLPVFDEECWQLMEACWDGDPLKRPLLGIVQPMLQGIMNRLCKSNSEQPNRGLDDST
The gist of the method:
as §1

Another experiment addresses T3, TXK (Homo sapiens, UniProt P42681).
T3 construct: purchased Reaction Biology Corp
T3 sequence (P42681 1-527): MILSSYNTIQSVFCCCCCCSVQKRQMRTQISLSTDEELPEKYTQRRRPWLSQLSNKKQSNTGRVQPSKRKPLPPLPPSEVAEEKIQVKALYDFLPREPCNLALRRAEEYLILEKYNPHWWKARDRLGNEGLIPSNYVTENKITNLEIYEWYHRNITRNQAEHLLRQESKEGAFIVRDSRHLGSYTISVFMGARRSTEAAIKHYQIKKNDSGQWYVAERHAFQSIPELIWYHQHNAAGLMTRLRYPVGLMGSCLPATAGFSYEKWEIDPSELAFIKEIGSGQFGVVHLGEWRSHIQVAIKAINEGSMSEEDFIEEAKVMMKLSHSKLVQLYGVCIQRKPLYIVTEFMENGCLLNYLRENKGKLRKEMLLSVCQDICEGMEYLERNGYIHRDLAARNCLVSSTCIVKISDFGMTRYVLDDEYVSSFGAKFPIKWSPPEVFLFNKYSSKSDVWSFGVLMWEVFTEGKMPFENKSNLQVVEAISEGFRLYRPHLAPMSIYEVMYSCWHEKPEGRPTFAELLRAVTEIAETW
In outline:
as §1

Setting [1] is: read-out: % Enzyme Activity (relative to DMSO controls) Run 1.
Where [2] appears, read: read-out: % Enzyme Activity (relative to DMSO controls) Run 2.

Where two headings read alike, the source gives them in different places.

With `C=CC(=O)Nc1cccc(Nc2nc(Nc3ccc(OCCOC)c(F)c3)ncc2F)c1` [Compound 2], the results for the inhibition at 3 µM against EPHB3, at RIPK5 and against TXK were 1.31%, 2.32% and 99.8%, respectively. The remaining activity at 3 µM was found to be 99.2% on EPHB3 (setting [1]); 98.2% at EPHB3 (setting [2]); 96.1% at RIPK5 (setting [1]); 99.2% at RIPK5 (setting [2]); 0.42% on TXK (setting [1]); 0.03% on TXK (setting [2]).
